Test results as given in ChEMBL document CHEMBL1177724, “Design, synthesis, and structure-activity relationship studies of novel 2,4,6-trisubstituted-5-pyrimidinecarboxylic acids as peroxisome proliferator-activated receptor gamma (PPARgamma) partial agonists with comparable antidiabetic efficacy to rosiglitazone” (J Med Chem, 2010).
Where a chain is given by its changes, count along the chain named. In brackets after ≈: the same amount, converted by molar mass. Each block holds one compound with its values, some of them ahead of it. Activity calls are given as the source filed them. No cut-off for these calls is given here.

Legend:
[1] = molecular target: T1, Peroxisome proliferator-activated receptor gamma (Homo sapiens, UniProt P37231)
T1 sequence (P37231 whole entry): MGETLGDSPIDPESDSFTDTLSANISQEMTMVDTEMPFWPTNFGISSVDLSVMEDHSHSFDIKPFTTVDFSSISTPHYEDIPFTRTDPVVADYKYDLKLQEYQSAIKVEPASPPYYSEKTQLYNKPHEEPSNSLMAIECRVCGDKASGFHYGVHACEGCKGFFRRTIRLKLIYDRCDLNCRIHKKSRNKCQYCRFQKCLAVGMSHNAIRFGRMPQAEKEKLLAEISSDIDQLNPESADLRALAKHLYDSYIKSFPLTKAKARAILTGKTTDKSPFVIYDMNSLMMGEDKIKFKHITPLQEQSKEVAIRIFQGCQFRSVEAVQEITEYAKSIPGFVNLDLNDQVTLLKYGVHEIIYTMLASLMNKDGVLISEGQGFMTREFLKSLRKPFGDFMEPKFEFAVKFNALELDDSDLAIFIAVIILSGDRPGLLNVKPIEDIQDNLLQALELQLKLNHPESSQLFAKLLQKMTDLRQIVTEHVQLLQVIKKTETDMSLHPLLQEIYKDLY
Description: Partial agonist activity at human PPARgamma-LBD expressed in CHO-K1 cells co-transfected with GAL4 assessed as luciferase activity by transactivation assay

[2] = test system: 3T3-L1; experiment: Induction of adipogenesis in mouse mature 3T3L1 cells assessed as P2 mRNA expression level after 10 days […]; format: cell-based; details: 3t3-l1, 240 h
[3] = test system: 3T3-L1; experiment: Induction of adipogenesis in mouse 3T3L1 cells assessed as increase in lipid accumulation by Oil red O staining
[4] = test system: Mus musculus; experiment: Antidiabetic activity in db/db mouse assessed as reduction of plasma glucose level at 10 mg/kg, po qd for 7 days; format: functional; design: scale not given: the % may be the effect or the level left
[5] = test system: 3T3-L1; experiment: Induction of adipogenesis in mouse blast 3T3L1 cells assessed as P2 mRNA expression level after 7 days […]; format: cell-based; details: 3t3-l1, 168 h
[6] = test system: Mus musculus; experiment: Antidiabetic activity in db/db mouse assessed as weight gain at 3 to 10 mg/kg, po qd for 7 days; format: functional, organism-based
[7] = molecular target: T2, Peroxisome proliferator-activated receptor gamma (Homo sapiens) (UniProt P37231); experiment: Partial agonist activity at human PPARgamma-LBD expressed in CHO-K1 cells co-transfected with GAL4 assessed as luciferase activity at 10 uM by transactivation assay; format: functional, cell-based
T2 sequence (whole entry): T1 sequence (P37231 whole entry)

[8] = Solubility in water; format: physicochemical
[9] = molecular target: T2, Peroxisome proliferator-activated receptor gamma (Homo sapiens); experiment: Partial agonist activity at human PPARgamma-LBD expressed in CHO-K1 cells co-transfected with GAL4 assessed as luciferase activity at […] by transactivation assay relative to rosiglitazone; format: functional, cell-based
[10] = molecular target: T1, Peroxisome proliferator-activated receptor gamma; remark: listed apart in the source
Description: Antagonist activity at human PPARgamma-LBD expressed in CHO-K1 cells co-transfected with GAL4 assessed as inhibition of rosiglitazone-induced luciferase activity by transactivation assay

[11] = AUC in mouse at 1 mg/kg, iv; format: ADME, organism-based; design: dose 1 mg/kg, route intravenous; details: plasma
[12] = Plasma concentration in mouse at 1 mg/kg, iv after 10 mins; format: ADME, organism-based; design: dose 1 mg/kg, route intravenous
[13] = Volume of distribution in mouse at 1 mg/kg, iv; format: ADME, organism-based; design: dose 1 mg/kg, route intravenous; details: in vivo
[14] = Clearance in mouse at 1 mg/kg, iv; format: ADME, organism-based; design: dose 1 mg/kg, route intravenous; details: in vivo
[15] = molecular target: T3, Peroxisome proliferator-activated receptor gamma (Mus musculus, UniProt P37238)
T3 sequence (P37238 whole entry): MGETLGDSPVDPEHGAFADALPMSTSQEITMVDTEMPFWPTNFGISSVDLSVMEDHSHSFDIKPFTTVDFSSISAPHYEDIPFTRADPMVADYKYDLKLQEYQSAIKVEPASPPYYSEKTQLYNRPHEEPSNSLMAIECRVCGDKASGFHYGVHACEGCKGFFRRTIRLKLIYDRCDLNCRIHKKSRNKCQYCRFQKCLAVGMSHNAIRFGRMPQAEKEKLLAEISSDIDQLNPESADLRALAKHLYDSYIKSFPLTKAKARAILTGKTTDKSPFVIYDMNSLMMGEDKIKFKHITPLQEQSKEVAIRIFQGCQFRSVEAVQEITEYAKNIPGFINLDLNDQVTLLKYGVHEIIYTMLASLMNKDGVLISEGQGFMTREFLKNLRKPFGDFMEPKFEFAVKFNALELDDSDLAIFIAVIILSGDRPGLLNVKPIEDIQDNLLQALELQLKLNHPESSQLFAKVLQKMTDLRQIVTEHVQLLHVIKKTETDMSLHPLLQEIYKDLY
Description: Partial agonist activity at mouse PPARgamma-LBD expressed in CHO-K1 cells co-transfected with GAL4 assessed as luciferase activity by transactivation assay

[16] = molecular target: T4, Peroxisome proliferator-activated receptor gamma (Rattus norvegicus, UniProt O88275)
T4 sequence (O88275 whole entry): T3 sequence (P37238 whole entry) with S8P, E54D, N383S
Description: Antagonist activity at rat PPARgamma-LBD expressed in CHO-K1 cells co-transfected with GAL4 assessed as inhibition of rosiglitazone-induced luciferase activity by transactivation assay

[17] = test system: Mus musculus; experiment: Antidiabetic activity in db/db mouse assessed as weight gain at 10 to 100 mg/kg, po qd for 7 days; format: functional, organism-based
[18] = Half life in mouse at 1 mg/kg, iv; format: ADME, organism-based; design: dose 1 mg/kg, route intravenous; details: in vivo
[19] = molecular target: T4, Peroxisome proliferator-activated receptor gamma; remark: listed apart in the source
Description: Partial agonist activity at rat PPARgamma-LBD expressed in CHO-K1 cells co-transfected with GAL4 assessed as luciferase activity by transactivation assay

[20] = test system: Mus musculus; experiment: Antidiabetic activity in db/db mouse assessed as reduction of plasma glucose level at 30 mg/kg, po qd for 7 days; format: functional; design: scale not given: the % may be the effect or the level left
[21] = test system: Mus musculus; experiment: Antidiabetic activity in db/db mouse assessed as reduction of plasma glucose level at 100 mg/kg, po qd for 7 days; format: functional; design: scale not given: the % may be the effect or the level left
[22] = Oral bioavailability in mouse at 1 mg/kg; format: ADME, organism-based; details: in vivo
[23] = molecular target: T3, Peroxisome proliferator-activated receptor gamma; remark: listed apart in the source
Description: Antagonist activity at mouse PPARgamma-LBD expressed in CHO-K1 cells co-transfected with GAL4 assessed as inhibition of rosiglitazone-induced luciferase activity by transactivation assay

[24] = AUC in mouse at 1 mg/kg, po; format: ADME, organism-based; design: dose 1 mg/kg, route oral; details: plasma

EC50 [1]: 1.8 µM
SMILES: CSc1nc(NC2CC2)c(C(=O)O)c(SCc2ccccc2)n1

EC50 [1]: 0.95 µM
SMILES: CCCCCCCCSc1nc(NCc2ccccc2)c(C(=O)O)c(SCc2ccccc2)n1

EC50 [1]: 2.7 µM
SMILES: CSc1nc(NCc2ccncc2)c(C(=O)O)c(SCc2ccccc2)n1

EC50 [1]: > 10 µM
SMILES: CCCNc1nc(SC)nc(SCc2ccccc2)c1C(=O)O

EC50 [1]: 0.47 µM
SMILES: CCCCNc1nc(NCc2ccccc2)c(C(=O)O)c(SCc2ccccc2)n1

EC50 [1]: > 10 µM
SMILES: CNc1nc(SC)nc(SCc2ccccc2)c1C(=O)O

EC50 [1]: 1.6 µM
SMILES: CSc1nc(Nc2ccccc2)c(C(=O)O)c(SCc2ccccc2)n1

Activity [9]: inactive | EC50 [1]: > 10 µM
SMILES: CSc1nc(NCc2ccccc2)c(C(=O)O)c(-c2cccs2)n1

EC50 [1]: > 10 µM
SMILES: O=C(O)c1c(NCc2ccccc2)ncnc1SCc1ccccc1

EC50 [1]: 2.3 µM
SMILES: CSc1nc(NCc2ccccc2)c(C(=O)O)c(OCc2ccccc2)n1

EC50 [1]: 0.25 µM
SMILES: CCCCCCCNc1nc(NCc2ccccc2)c(C(=O)O)c(SCc2ccccc2)n1

EC50 [1]: 0.55 µM
SMILES: CCCCSc1nc(NCc2ccccc2)c(C(=O)O)c(SCc2ccccc2)n1

EC50 [1]: 0.42 µM
SMILES: CCCCN(C)c1nc(NCc2ccccc2)c(C(=O)O)c(SCc2ccccc2)n1

Second part, the compound before the results:

SMILES: CSc1nc(NCC2CCCCC2)c(C(=O)O)c(SCc2ccccc2)n1
EC50 [1]: 0.3 µM

SMILES: CN(CCOc1ccc(CC2SC(=O)NC2=O)cc1)c1ccccn1 (stereo not drawn) [ROSIGLITAZONE]
Activity [2]: Dose-dependent effect | Activity [3]: Active | Activity [4]: 67% | Activity [5]: Dose-dependent effect | Activity [6]: inactive

SMILES: CSc1nc(C)c(C(=O)NCc2ccccc2)c(NCc2ccccc2)n1
Activity [7]: inactive

SMILES: CSc1nc(NCCc2ccccc2)c(C(=O)O)c(SCc2ccccc2)n1
EC50 [1]: 0.67 µM

SMILES: CSc1nc(NCc2ccccc2)c(C(=O)O)c(SCc2ccccc2)n1
EC50 [1]: 0.18 µM | solubility [8]: < 0.001 mg/mL

SMILES: CSc1nc(Cl)c(C(=O)NCc2ccccc2)c(NCc2ccccc2)n1
EC50 [1]: 5 µM

SMILES: CSc1nc(NCc2cccnc2)c(C(=O)O)c(SCc2ccccc2)n1
EC50 [1]: 0.74 µM

SMILES: CCCCN(CCCC)c1nc(NCc2ccccc2)c(C(=O)O)c(SCc2ccccc2)n1
EC50 [1]: > 10 µM

SMILES: CSc1nc(NCc2ccccn2)c(C(=O)O)c(SCc2ccccc2)n1
EC50 [1]: 0.25 µM

SMILES: CSc1nc(SCc2ccccc2)c(C(=O)O)c(SCc2ccccc2)n1
IC50 [10]: 1.79 µM | AUC [11]: 8.86 µg·h/mL | concentration at 10 min [12]: 6.89 µg/mL | Vd [13]: 0.12 L/kg | clearance [14]: 0.113 L/h/kg | EC50 [15]: 0.158 µM | IC50 [16]: 0.539 µM | Activity [17]: inactive | half-life [18]: 45.6 min | EC50 [19]: 0.158 µM | Activity [3]: Active | Activity [20]: 56% | Activity [21]: 77% | Activity [4]: 27% | Activity [5]: Not Active | bioavailability [22]: 35.8% | IC50 [23]: 1.77 µM | EC50 [1]: 0.14 µM | AUC [24]: 3.17 µg·h/mL | solubility [8]: 0.0437 mg/mL (≈ 105 µM)
